B1: Gαolf: wild type G protein α subunit Gαolf (mouse), SEQ ID NO: 2 (protein, listed as Mus musculus)
chain: MGCLGNSSKTAEDQGVDEKERREANKKIEKQLQKERLAYKATHRLLLLGAGESGKSTIVKQMRILHVNGFNPEEKKQKILDIRKNVKDAIVTIVSAMSTIIPPVPLANPENQFRSDYIKSIAPITDFEYSQEFFDHVKKLWDDEGVKACFERSNEYQLIDCAQYFLERIDSVSLVDYTPTDQDLLRCRVLTSGIFETRFQVDKVNFHMFDVGGQRDERRKWIQCFNDVTAIIYVAACSSYNMVIREDNNTNRLRESLDLFESIWNNRWLRTISIILFLNKQDMLAEKVLAGKSKIEDYFPEYANYTVPEDATPDAGEDPKVTRAKFFIRDLFLRISTATGDGKHYCYPHFTCAVDTENIRRVFNDCRDIIQRMHLKQYELL
modifications: (1)..(381) bulbus olfactorius of mouse

How the values were obtained:
β1 adrenergic receptor = molecular target: T1, β1 adrenergic receptor (Rattus norvegicus, UniProt P18090); assay: Patch-clamp agonist concentration dependence in Gi/olf94 chimeric G protein expressing cells (present invention); assay type: cell-based; conditions: for Change Level in Current Density (relative value): Table 14, 100 = 30000 nM dopamine, 100 nM dobutamine, 30 nM ISO
T1 construct: expressed in transfected cells; host or cells: HEK293T
T1 sequence (P18090 whole entry): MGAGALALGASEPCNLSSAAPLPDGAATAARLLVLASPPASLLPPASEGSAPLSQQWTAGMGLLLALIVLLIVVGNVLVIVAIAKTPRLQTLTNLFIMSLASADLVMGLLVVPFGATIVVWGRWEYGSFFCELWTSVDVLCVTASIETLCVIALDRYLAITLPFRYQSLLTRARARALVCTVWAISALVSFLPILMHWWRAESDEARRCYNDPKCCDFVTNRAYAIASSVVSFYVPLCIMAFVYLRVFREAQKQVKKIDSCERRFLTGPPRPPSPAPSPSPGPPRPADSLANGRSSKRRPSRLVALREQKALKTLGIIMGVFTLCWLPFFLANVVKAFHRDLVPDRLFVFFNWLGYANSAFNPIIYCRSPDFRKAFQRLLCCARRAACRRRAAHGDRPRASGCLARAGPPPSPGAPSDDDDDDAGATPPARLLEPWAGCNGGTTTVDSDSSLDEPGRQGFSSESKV
Description: Membrane current of the chimeric G protein expressing cell was measured by using a patch-clamp technique. […] Procedure for the measurements is shown below.
Measurement operations were conducted under a microscope (“1X71” manufactured by Olympus, Inc.). A liquid circulation chamber was mounted on the silver/silver chloride (Ag/AgCl) electrode. A sample for measurement was placed in the liquid circulation chamber filled with Tyroad's buffer. At a state where a single cell was in contact with the tip of a glass electrode, negative pressure was applied in the glass electrode. The portion of a cell membrane in contact with the tip of the glass electrode was torn to form an equivalent circuit (Whole-cell mode). The electric potential difference between inside and outside a cell was kept at 0 mV by using a patch clamp amplifier (“EPC10” manufactured by HEKA Instrument Inc.). Under this mode, the Tyroad's buffer in the liquid circulation chamber was substituted with a GIRK buffer.
The GIRK buffer in the liquid circulation chamber was substituted with a sample solution.
Chemical substance detection sensitivity according to the present invention was compared to detection sensitivity of cAMP technique, which is a commonly used chemical substance detection technique. The cAMP technique is a technique for measuring an increase in cAMP concentration in an intracellular fluid caused by an interaction between an agonist and a receptor, and quantifying the concentration of the agonist based on the measured value. More particularly, cells expressing β1 adrenergic receptor and potassium ion channel Kir3.1 (F137S) were placed in contact with a buffer solution containing ISO, and then were homogenized. The concentration of cAMP contained in the obtained homogenate liquid was measured. The concentration measurement was performed by using a measurement kit (cyclic AMP EIA kit; Assay Designs, Inc.). The kit measures cAMP concentration by utilizing competitive EIA (competitive enzyme immunoassay). A cAMP concentration obtained when the ISO concentration inside of a buffer solution was 1000 nM was represented as 100 as a standard, and cAMP concentrations at respective ISO concentrations were calculated as ratios with regard to this standard cAMP concentration. […] A change value in current density obtained when the ISO concentration was 30 nM was represented as 100 as a standard, and change values in current density at respective ISO concentrations were calculated as ratios with regard to the standard change value.

[1] = system: β1 adrenergic receptor / potassium ion channel Kir3.1 (F137S) in HEK293T cells; assay: Patch-clamp membrane current of G protein expressing HEK293T cells with and without ISO; assay type: cell-based, rat (receptor), mouse (Kir3.1)
Description: A cell was obtained that expressed a chimeric G protein, a potassium ion channel, and a chemical substance receptor (hereinafter, the cell is referred to as “chimeric G protein expressing cell”). An electrophysiological activity of the chimeric G protein expressing cell was measured by using patch-clamp method. The chimeric G protein expressing cell was prepared in accordance with the following procedure. First, a chimeric G protein expression plasmid, a potassium ion channel expression plasmid, and a chemical substance receptor expression plasmid were prepared. Next, the three expression plasmids were transfected into HEK293T cells, and were then expressed inside the cells.
A chimeric G protein comprising Gi/olf13 as a chimeric Gα subunit was employed. The mutated potassium ion channel Kir3.1 (F137S) was employed as a potassium ion channel. The β1 adrenergic receptor was employed as a chemical substance receptor.
The plasmid (βAR), the plasmid Kir3.1 (F137S), and the plasmid (Gi/olf13) were expressed in HEK293T cells. The procedure for the expression is shown below. Approximately 80% confluent cultured HEK293T cells were collected, and plated on a new culture petri dish. The passage number of the used cells was not more than ten generations. DMEM (supplemented with 10% FBS (fetal bovine serum) and streptomycin) was used. After culturing the cells for 24 hours, the cells were transfected with the plasmids by using a transfection reagent. The cells were cultured for 48 hours after being transfected with the plasmids, and thereby chimeric G protein expressing cells were prepared.
Membrane current of the chimeric G protein expressing cell was measured by using a patch-clamp technique. Measurements were conducted with and without supplying isoproterenol (hereinafter, referred to as “ISO”) which was a β1 adrenergic receptor agonist. Procedure for the measurements is shown below.
The chimeric G protein expressing cells were plated on coverslips (3 mm×10 mm; Matsunami Glass Ind., Ltd.,) treated with PLL (poly-L-lysine) and kept still for four hours to obtain samples for the measurements.
Procedure for preparing glass electrodes used for the measurements is described below. […]
Measurement operations were conducted under a microscope (“1X71” manufactured by Olympus, Inc.). […] Pulse potentials (electric potential: −50 mV; duration time: 100 mS) were applied every 10 seconds, and membrane currents obtained upon the application were measured.
Next, membrane currents obtained when isoproterenol (hereinafter, abbreviated as “ISO”) which is a β1 adrenergic receptor agonist was brought into contact with the cell were measured in accordance with the following procedure. […]

Row | Molecule | Change Level in Current Density (relative value) (β1 adrenergic receptor; agonist 0.3 nM) | Change Level in Current Density (relative value) (β1 adrenergic receptor; agonist 3 nM) | Change Level in Current Density (relative value) (β1 adrenergic receptor; agonist 30 nM) | Change Level in Current Density (relative value) (β1 adrenergic receptor; agonist 300 nM) | Change Level in Current Density (relative value) (β1 adrenergic receptor; agonist 3000 nM) | EC50 (β1 adrenergic receptor; change in current density, Gi/olf94 cells, read-out: half maximal effective concentration (EC50)) | change level of current caused by addition of ISO ([1]; Reference Example) | current value when ISO was supplied ([1]; Reference Example, FIG. 26-28, with ISO) | Change Level in Current Density ([1]; Table 11, difference of current density without vs with ISO 30 nM, pulse −50 mV, β1 adrenergic receptor + Kir3.1 (F137S) co-expressed) | Current Change Level ([1]; Table 15, Reference Example, change on contact with ISO)
1 | CC(CCc1ccc(O)cc1)NCCc1ccc(O)c(O)c1 (stereo not shown) [dobutamine] | 0.67 | 6.80 | 20.59 | 99.15 | 100 | 50 nM | – | – | – | –
2 | B1 | – | – | – | – | – | – | small | approximately 0.5 nA | −22.59 pA/pF | −0.37 nA

— patent US8202687B2, “Method for transporting potassium ions from front side to back side of lipid bilayer membrane” (Panasonic Corporation, priority 2010, dated 2012)
